Test results published in patent US11542288B2, “Antiviral compounds” (priority 2020, dated 2023).

Legend:
wild-type HIV-1 = assay: HIV antiviral assay (293T / TZM-BL luciferase); type: cell-based; conditions: read-out: Antiviral WT EC50
HIV-1 protease 8 Mutant = target: T1, HIV-1 protease 8 Mutant (Human immunodeficiency virus type 1 group M subtype B, UniProt P12497); assay: HIV enzyme inhibition assay (Ki), 8 Mutant variant; type: biochemical; conditions: drug-resistant protease variant 8 Mutant
T1 construct: onto NL4-3 wild-type protease on a pET11a plasmid with codon optimization for protein expression in Escherichia coli; A Q7K mutation was included to prevent autoproteolysis

HTLV-1 protease [1] = target: T2, HTLV-1 protease (Human T-cell leukemia virus type I, UniProt Q82134, L40I); assay: biochemical
[2] = system: SP cells (chronically infected with HTLV-1); assay: SP cell Gag processing (HTLV-1 maturation) immunoblot; type: cell-based; conditions: for FL Gag band percentage (mean±SEM): 48 h; for amount of full-length (FL) Gag and larger size cleavage intermediates (CI): SP cell lysates and supernatants, 50 μM or 100 μM
Method: SP Cell Culture and Protease Inhibition Treatments. SP cells were cultured in RPMI (Invitrogen, Carlsbad, Calif., USA) containing 20% HyClone (FC3) from Thermo Scientific (Waltham, Mass.) and 1% penicillin-streptomycin from Life Technologies (Grand Island, N.Y., USA) and supplemented with human IL-2 (Roche Diagnostics, Indianapolis, Ind., USA) at a concentration of 10 U/mL. Cells were grown to a density of […], and the media was exchanged into media containing the drug treatment at the two concentrations tested (50 μM and 100 μM). DMSO was used as a treatment control at the max concentration (0.01% v/v) as used for the sample with the highest inhibitor concentrations. Cells were treated for 48 h in an incubator at 37° C. with 5% CO2. To harvest the samples, the cell culture supernatant and cells were separated with a 5 min spin at 1000 g. The cell culture supernatant was filtered through a 0.22 μm syringe filter and ultracentrifuged over an 8% Optiprep cushion (Millipore Sigma, USA) (109,000 g for 1.5 hat 4° C.) in a 50.1 Ti rotor (Beckman Coulter, USA). The resulting viral pellet was resuspended in 200 μL of RIPA buffer (150 mM NaCl, 1% (v/v) Nonidet P-40, 0.5% sodium deoxycholate, 0.1% SDS, 25 mM Tris pH 7.4) supplemented with a cOmplete, Mini, EDTA-free cellular Protease Inhibitor Cocktail (Roche Diagnostics, Indianapolis, Ind., USA). The SP cell pellet was washed once with phosphate buffered saline (PBS) and resuspended in a final volume of 200 μL of a RIPA buffer cOmplete, Mini, EDTA-free cellular Protease Inhibitor Cocktail (Roche Diagnostics, Indianapolis, Ind., USA). Immunoblot samples were then prepared and detected as described in the previous method section. Gel band quantification analysis was performed using Fiji. A one-tailed t test for two independent means (95% confidence) was used to determine if the FL Gag band from the various drug treatments in the immunoblot analysis was statistically different from the DMSO controls.
To further validate inhibition of HTLV-1 protease, SP cells (which are chronically infected with HTLV-1) were treated with the same inhibitors (FIG. 20). The SP cell line harbors low numbers of HTLV-1 proviruses and produces virus particles that incorporate full-length Gag, which makes SP an ideal cell culture system for testing the inhibition of HTLV-1 maturation. Gag cleavage products were detected by using a CA (p24) primary antibody in both SP cell lysates and virus particles released in the cell culture supernatants. […] For the Ex.7 treatment of the viral particles produced from the SP cells, the FL Gag band percentage was 5.8±2.8% and 12.9±3.1% (mean±SEM) for 50 μM and 100 μM treatments, respectively (FIGS. 21, 23).

HIV-1 protease KY24 = HIV-1 protease KY24 (Human immunodeficiency virus type 1, UniProt P12497); conditions: read-out: Ki KY24; drug-resistant protease variant KY24
HIV-1 protease I84V = target: T3, HIV-1 protease I84V (Human immunodeficiency virus type 1 group M subtype B, UniProt P12497, I572V/Q495K); assay: HIV enzyme inhibition assay (Ki), I84V variant; type: biochemical; conditions: drug-resistant protease variant I84V
T3 construct: onto NL4-3 wild-type protease on a pET11a plasmid; made in house

HIV-1 protease 11 Mutant = target: T4, HIV-1 protease 11 Mutant (Human immunodeficiency virus type 1 group M subtype B, UniProt P12497); assay: HIV enzyme inhibition assay (Ki), 11 Mutant variant; type: biochemical; conditions: drug-resistant protease variant 11 Mutant
T4 construct: onto NL4-3 wild-type protease on a pET11a plasmid with codon optimization for protein expression in Escherichia coli; A Q7K mutation was included to prevent autoproteolysis

HIV-1 protease 10 Mutant = target: T5, HIV-1 protease 10 Mutant (Human immunodeficiency virus type 1 group M subtype B, UniProt P12497); assay: HIV enzyme inhibition assay (Ki), 10 Mutant variant; type: biochemical; conditions: drug-resistant protease variant 10 Mutant
T5 construct: onto NL4-3 wild-type protease on a pET11a plasmid with codon optimization for protein expression in Escherichia coli; A Q7K mutation was included to prevent autoproteolysis

HTLV-1 protease [3] = target: T2, HTLV-1 protease; type: biochemical; parameters: This protease construct has 9 amino acids removed from the C-terminus to facilitate crystallization; made in house; host or cells: Escherichia coli; conditions: 1:1 ratio inhibitor to protease (1 μM), 60 min, 37° C.
HTLV-1 protease [4] = target: T2, HTLV-1 protease; conditions: HTLV-1 protease
HIV-1 protease I50V/A71V = target: T6, HIV-1 protease I50V/A71V (Human immunodeficiency virus type 1 group M subtype B, UniProt P12497, A559V/I538V/Q495K); assay: HIV enzyme inhibition assay (Ki), I50V/A71V variant; type: biochemical; conditions: drug-resistant protease variant I50V/A71V
T6 construct: onto NL4-3 wild-type protease on a pET11a plasmid; made in house

Row | SMILES | EC50 (wild-type HIV-1) [nM] | Ki (HIV-1 protease 8 Mutant) [nM] | Ki (HTLV-1 protease [1]) [nM] | FL Gag band percentage (mean±SEM) ([2]; SP cell lysate, 50 μM) [%] | FL Gag band percentage (mean±SEM) ([2]; SP cell lysate, 100 μM) [%] | amount of full-length (FL) Gag and larger size cleavage intermediates (CI) [2] | FL Gag band percentage (mean±SEM) ([2]; viral particles produced from SP cells, 50 μM) [%] | FL Gag band percentage (mean±SEM) ([2]; viral particles produced from SP cells, 100 μM) [%] | Ki (HIV-1 protease KY24) [nM] | Ki (HIV-1 protease I84V) [nM] | Ki (HIV-1 protease 11 Mutant) [nM] | Ki (HIV-1 protease 10 Mutant) [nM] | inhibition of Gag cleavage and VLP maturation (HTLV-1 protease [3]) | fold improvement of Ki compared to DRV (HTLV-1 protease [4]; relative to DRV) [fold] | fold better inhibition than UM6 (HTLV-1 protease [4]; relative to UM6) [fold] | Ki (HIV-1 protease I50V/A71V) [nM]
1 | CCOP(=O)(COc1ccc(C[C@H](NC(=O)O[C@H]2CO[C@H]3OCC[C@H]32)[C@H](O)CN(CC(CC)CC)S(=O)(=O)c2ccc(N)cc2)cc1)OCC [Example 7, (3R,3aS,6aR)-hexahydrofuro[2,3-b]furan-3-yl ((2S,3R)-4-((4-amino-N-(2-ethylbutyl)phenyl)sulfonamido)-1-(4-((diethoxyphosphoryl)methoxy)phenyl)-3-hydroxybutan-2-yl)carbamate] | 16 | 4.71 ± 0.73 | 30 ± 10 | 32.4±15.5 | 41.0±13.7 | increased | 5.8±2.8 | 12.9±3.1 | 1.08 ± 0.06 | < 0.005 | 106 ± 7 | 51.6 ± 5.5 | effectively inhibited Gag cleavage and VLP maturation | 26 | 4 | < 0.005
2 | CC(C)CN(C[C@@H](O)[C@H](Cc1ccccc1)NC(=O)O[C@H]1CO[C@H]2OCC[C@H]21)S(=O)(=O)c1ccc(N)cc1 [DRV, darunavir, reference compound] | 4.75 |  |  |  |  | increased |  |  |  |  |  |  | effectively inhibited Gag cleavage and VLP maturation |  |  | 
